This is an account of results in PubChem BioAssay (NCI).

Structures are written as SMILES. In brackets after ≈: the same amount, converted by molar mass. Several values for one entry are separate records, joined by “and”; a condition that tells them apart may be missing. Equal values may be shown once.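 96-well plates; 48 h exposure; 5 concentrations. Endpoints by linear interpolation between flanking doses. Not reached: highest tested concentration assigned. GI50 is the concentration that inhibits growth by half. TGI marks complete inhibition of growth.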

Test systems include EKVX NSCLC; HCT-116 colon; K-562 leukemia; LOX IMVI melanoma; NCI-H226 lung; NCI-H460 lung; PC-3 prostate; SR leukemia; U251 CNS; A498 renal; ACHN renal; CCRF-CEM leukemia; COLO 205 colon; DU-145 prostate; HCC-2998 colon; HCT-15 colon; HS 578T breast; IGROV1 ovarian; KM12 colon; M14 melanoma; MOLT-4 leukemia; NCI-H23 lung; OVCAR-4 ovarian; RPMI-8226 leukemia; SF-268 CNS; UACC-257 melanoma; UACC-62 melanoma; UO-31 renal; 786-0 renal; A549 NSCLC; HL-60(TB) leukemia; HOP-92 NSCLC; NCI-H522 lung; SF-295 CNS; SK-MEL-28 melanoma; SK-OV-3 ovarian.

What all share (test): NCI tumour cell line growth inhibition, 48 h

`O=C(Nc1cccc(-n2ccc3c(NC(=O)c4ccccc4)nccc32)c1)c1ccc(Cl)c(C(F)(F)F)c1`: the TGI is 17100 nM and > 100000 nM in the assay with EKVX NSCLC; 6770 nM and 50900 nM in the assay with K-562 leukemia; 10200 nM and > 100000 nM in the assay on NCI-H226 lung; 6710 nM and 15700 nM in the assay with SR leukemia. Moreover, the GI50 was 136 nM and 513 nM in the assay with HCT-116 colon; 163 nM and 612 nM in the assay with LOX IMVI melanoma; 116 nM and 481 nM with NCI-H460 lung; 143 nM and 950 nM in the assay with PC-3 prostate; 125 nM and 759 nM in the assay on U251 CNS.
Regarding `COc1ccc2c(ccc3c(C(=O)NCCCN(C)CCCNC(=O)c4cn(C)c5c4ccc4cc(OC)ccc45)cn(C)c32)c1`, the TGI was above 100000 nM in the assay on A498 renal; 3020 nM in the assay on ACHN renal; above 100000 nM in the assay on CCRF-CEM leukemia; 4870 nM with COLO 205 colon; 3170 nM in the assay with DU-145 prostate; 2920 nM with EKVX NSCLC. The TGI is 2970 nM in the assay with HCC-2998 colon; 2600 nM in the assay with HCT-15 colon; 4780 nM in the assay on HS 578T breast; 2860 nM in the assay with IGROV1 ovarian; above 100000 nM in the assay with K-562 leukemia; 2900 nM in the assay with KM12 colon. For the same molecule, the TGI in the assay with M14 melanoma was 2940 nM; in the assay on MOLT-4 leukemia it was above 100000 nM; in the assay on NCI-H23 lung, 2970 nM; in the assay with NCI-H460 lung it was 2790 nM; in the assay with OVCAR-4 ovarian, 3270 nM; in the assay with PC-3 prostate, 2880 nM. In addition, the TGI in the assay with RPMI-8226 leukemia amounted to 5890 nM; with SF-268 CNS it was 3380 nM; in the assay with UACC-257 melanoma, 2970 nM; in the assay on UACC-62 melanoma it was 3150 nM; in the assay on UO-31 renal, 3010 nM.
Take `COCCCC(NC(=O)C(CC(C)C)NC(=O)OCc1ccc(OC)cc1)C(=O)OC` (configuration not stated): the GI50 was 80.6 µg/mL (≈ 184 µM) in the assay with 786-0 renal; 61.1 µg/mL (≈ 139 µM) in the assay on A549 NSCLC; 42.1 µg/mL (≈ 95.9 µM) in the assay with CCRF-CEM leukemia; 77.6 µg/mL (≈ 177 µM) with DU-145 prostate; 32.5 µg/mL (≈ 74.2 µM) in the assay with HCC-2998 colon; 26.9 µg/mL (≈ 61.3 µM) in the assay on HL-60(TB) leukemia. The GI50 was 40.8 µg/mL (≈ 93 µM) with HOP-92 NSCLC; 36 µg/mL (≈ 82.1 µM) with K-562 leukemia; 96.4 µg/mL in the assay on LOX IMVI melanoma; 50.5 µg/mL (≈ 115 µM) with M14 melanoma; 39.4 µg/mL (≈ 89.9 µM) in the assay with MOLT-4 leukemia; 23 µg/mL with NCI-H460 lung. Further, the GI50 in the assay with NCI-H522 lung is 59.8 µg/mL (≈ 136 µM); in the assay on RPMI-8226 leukemia it was 27 µg/mL (≈ 61.6 µM); in the assay on SF-295 CNS, 83.3 µg/mL (≈ 190 µM); in the assay with SK-MEL-28 melanoma, 47.1 µg/mL (≈ 107 µM); in the assay with SK-OV-3 ovarian, 71.6 µg/mL (≈ 163 µM); in the assay on SR leukemia, 18.8 µg/mL (≈ 42.8 µM). In the assay on UACC-62 melanoma, the GI50 is 71.3 µg/mL (≈ 163 µM). Moreover, the TGI with CCRF-CEM leukemia is 87.1 µg/mL; in the assay on HCC-2998 colon it was 75.1 µg/mL; in the assay with HL-60(TB) leukemia, 57.5 µg/mL (≈ 131 µM); with HOP-92 NSCLC, 65.4 µg/mL (≈ 149 µM); in the assay on K-562 leukemia it was 81.5 µg/mL; in the assay with M14 melanoma, 85.3 µg/mL. The TGI in the assay on MOLT-4 leukemia turned out to be 60.1 µg/mL; in the assay with NCI-H460 lung, 46.2 µg/mL; with RPMI-8226 leukemia it was 70 µg/mL; in the assay with SK-MEL-28 melanoma, 76.6 µg/mL (≈ 175 µM); in the assay with SR leukemia it was 42.5 µg/mL.
